The subject of one series is PD-L1. As to the kind of experiment: Immunoblots for PD-L1 in PTEN-deficient GBM cells. It is filed as cell-based, human and mouse. The conditions noted are these: immunoblot; U87, PTEN-KO SF763, CT2A, 005 GSC, GSC23, GSC7-10; 24 hours. As for the experimental part:
(§1) Cell Culture. The GBM cell lines U87, U251, SF763, LN229, and CT2A, as well as 293T cells were cultured in Dulbecco's Modified Eagle's Medium (DMEM; Gibco, #11995-065). The mouse glioma cell line GL261 cells and SIM-A9 microglia were cultured in Dulbecco's Modified Eagle Medium-Ham's F12 medium (Gibco, #10565-018). HMC3 microglia were cultured in Eagle's Minimum Essential Medium (ATCC, #30-2003). THP-1 macrophages were cultured in RPMI 1640 medium (Gibco, #11875093). All cell lines were cultured in the indicated medium containing 10% fetal bovine serum (FBS; Fisher Scientific, #16140071) and 1:100 antibiotic-antimycotic (Gibco, #15140-122), and were purchased from the American Type Culture Collection (ATCC). Human GSCs (GSC23 and GSC7-10) and mouse GBM tumor-derived 005 GSCs and QPP7 GSCs were cultured in neural stem cell (NSC) proliferation media (Millipore, #SCM005) containing 20 ng/mL epidermal growth factor (EGF; PeproTech, #AF-100-15) and basic fibroblast growth factor (bFGF; PeproTech, #100-18B). Human GSCs were gifted by Dr. Frederick F. Lang from the Brain Tumor Center (The University of Texas MD Anderson Cancer Center). 005 GSCs and QPP7 GSCs were provided by Dr. Samuel D. Rabkin (Massachusetts General Hospital) and Dr. Jian Hu (The University of Texas MD Anderson Cancer Center), respectively. PTEN CRISPR KO in SF763 and LN229 cells were generated. […]

Series [1] in a line: LC-MS/MS quantification of BAPN in plasma and brain. It is filed as in vivo, C57BL/6 mice. The conditions noted are these: BAPN 2 g/L in drinking water; concentration in plasma and brain after 1, 2, 4, 8 hours. As for the experimental part:
Mass spectrometry. A high-performance liquid chromatography tandem mass spectrometry (LC-MS/MS) assay was developed to quantify BAPN and SR9009 in plasma and brain of C57BL/6 mice. Specifically, the blood and brain tissues were collected after 1, 2, 4, and 8 hours of the administration of BAPN (2 g/L in drinking water) or SR9009 (100 mg/kg body weight, i.p.). The plasma was generated using the standard centrifugation techniques, and the brain tissues were pulverized by cryogenic grinding with liquid nitrogen. The plasma and brain tissue samples were mixed with internal standards, deproteinized with MeOH, and processed into LC-MS/MS to test the concentration of BAPN or SR9009. The analysis was performed at the Mass Spectrometry Core in Research Resources Center of University of Illinois at Chicago.

For another series, the system named is PATZ1 and PRRX1. In words: RT-qPCR of transcription factors in PTEN-null GBM cells. In kind it is cell-based, human. To be noted: U87 and U251 cells; BAPN 200 μM. As to the method: as §1, with “Center).” for “Center). 005 GSCs and QPP7 GSCs were provided by Dr. Samuel D. Rabkin (Massachusetts General Hospital) and Dr. Jian Hu (The University of Texas MD Anderson Cancer Center), respectively. PTEN CRISPR KO in SF763 and LN229 cells were generated.”
Quantitative real-time PCR (RT-qPCR). […] RNA was quantified by NanoDrop spectrophotometers and then the All-In-One 5× RT MasterMix (Applied Biological Materials, #G592) was used to reverse-transcribe RNA into cDNA in T100 Thermal Cycler (Bio-Rad). […]
(In general: Real-time PCR tracks product formation cycle by cycle.)

For another series, the system named is LOX. In words: Immunoblots for LOX in CT2A cells and 005 GSCs. To be noted: immunoblot, SR9009 5 μM. In kind it is cell-based, mouse. As to the method: as §1

For `N#CCCN` [BAPN, β-aminopropionitrile], the “expression of PD-L1” value in the series on PD-L1 is listed as “upregulated”. Also, the “ability to cross the blood-brain barrier (BBB)” value in series [1] is reported as “showed an ability to cross the blood-brain barrier”. In the series with PATZ1 and PRRX1, the “mRNA expression of PATZ1” value is “upregulated” and the “mRNA expression of PRRX1” value is “upregulated”.
Take `CCOC(=O)N1CCC(CN(Cc2ccc(Cl)cc2)Cc2ccc([N+](=O)[O-])s2)C1` (centres unmarked) [SR9009]: in the series on LOX, the LOX expression result is reported as “did not affect”.

The values are drawn from patent US20250186396A1, “COMPOSITIONS AND METHODS FOR THE TREATMENT OF GLIOBLASTOMA WITH A DUAL TARGETING ANTI-TUMOR COMPOSITION” (Northwestern University, priority 2023, published 2025).
